Reference: US10506807B2, “Halogen-substituted phenoxyphenylamidines and the use thereof as fungicides” (priority 2015, dated 2019)
Like-named read-outs stand apart in the source and are kept apart here.

Tests used:
soy bean plants = assay: Plant compatibility test using soy bean plants; assay type: in vivo; conditions: soy bean plants sprayed, 1000 ppm active compound, evaluated 6 days after application; 0% no damages, 100% totally damaged
Method: Plant Compatibility Test Using Soy Bean Plants • Solvent: 24.5 parts by weight of acetone • 24.5 parts by weight of dimethylacetamide • Emulsifier: 1 part by weight of alkylaryl polyglycol ether To produce a suitable preparation of active compound, 1 part by weight of active compound is mixed with the stated amounts of solvent and emulsifier, and the concentrate is diluted with water to the desired concentration. Young plants are sprayed with the preparation of active compound at the stated application rate. The plants are then placed in a greenhouse at approximately 21° C. and a relative atmospheric humidity of approximately 80%. The test is evaluated 6 days after application and comprises plant damages like leaf deformation, chlorosis, necrosis, shoot damage or stunting. The results are summarized in table V. 0% means no damages are observed, while 100% means that the plants are totally damaged.

[1] = Log P by HPLC on reversed phase columns (EEC directive 79/831 Annex V.A8); assay type: physicochemical; conditions: LC-UV
Method: Measurement of Log P values was performed according to EEC directive 79/831 Annex V.A8 by HPLC (High Performance Liquid Chromatography) on reversed phase columns with the following methods: • ^[a] Log P value is determined by measurement of LC-UV, in an acidic range, with 0.1% formic acid in water and acetonitrile as eluent (linear gradient from 10% acetonitrile to 95% acetonitrile). • ^[b] Log P value is determined by measurement of LC-UV, in a neutral range, with 0.001 molar ammonium acetate solution in water and acetonitrile as eluent (linear gradient from 10% acetonitrile to 95% acetonitrile). […] Lambda-max-values were determined using UV-spectra from 200 nm to 400 nm and the peak values of the chromatographic signals.

[2] = Hydrolysis stability test in homogeneous aqueous solution; assay type: physicochemical
Excerpt: Stability Towards Hydrolysis in Homogeneous Aqueous Solution—Hydrolysis Stability Test The chemical stability towards hydrolysis of the phenylamidines described in the prior art is good but an improved stability may be an advantage during the preparation and formulation processes in a large scale. The improved stability towards hydrolysis was proven by a hydrolysis stability test as described below: To produce a suitable preparation of active compound for the hydrolysis stability test, a 1000 ppm stock solution (1 mg/mL) of active compound in acetonitrile is prepared. Three aliquots of 100 μL are pipetted into HPLC vials and diluted with 750 μL acetonitrile. In each vial 850 μL of the appropriate buffer solution (pH4, pH7 and pH9, CertiPUR, Fa. Merck) is added. The buffer containing HPLC vials are incubated in a heated sample tray at 50° C. for 24 hours. The amount A of the active compound is analyzed by HPLC (UV-peak areas at 210 nm) at eight points in time t: 0 min, 140 min, 350 min, 560 min, 770 min, 980 min, 1190 min, 1400 min. The half-life time (T1/2) of each active compound is calculated via linear regression by using the following equations (first order degradation assumed): [formula] [formula] In table III the results of the hydrolysis stability test are shown for the compounds (I-01), (I-02), (I-03) and (I-04) at various pH-values. […] 337 known from WO2008/110278. […] This increased stability will be of advantage during the preparation and formulation processes in a large scale compared to known amidines. The data are to be seen merely by way of example and are not limiting for the purposes of the invention.

Phakopsora pachyrhizi = assay: In vivo preventive test on Phakopsora (soybeans); conditions: 100 ppm of active ingredient, preventive spray on soybeans, evaluated 7 days after inoculation
Method: Example: In Vivo Preventive Test on Phakopsora Test (Soybeans)
• Solvent: 24.5 parts by weight of acetone • 24.5 parts by weight of dimethylacetamide • Emulsifier: 1 part by weight of alkylaryl polyglycol ether
To produce a suitable preparation of active compound, 1 part by weight of active compound is mixed with the stated amounts of solvent and emulsifier, and the concentrate is diluted with water to the desired concentration.
To test for preventive activity, young plants are sprayed with the preparation of active compound at the stated rate of application. After the spray coating has dried on, the plants are inoculated with an aqueous spore suspension of the causal agent of soybean rust (Phakopsora pachyrhizi) and stay for 24 h without light in an incubation cabinet at approximately 24° C. and a relative atmospheric humidity of 95%.
The plants remain in the incubation cabinet at approximately 24° C. and a relative atmospheric humidity of approximately 80% and a day/night interval of 12 h.
The test is evaluated 7 days after the inoculation. 0% means an efficacy which corresponds to that of the untreated control, while an efficacy of 100% means that no disease is observed.

[3] = Photolysis stability test; assay type: physicochemical
Excerpt: Stability Towards Photolysis—Photolysis Stability Test
The stability towards photolysis of the phenylamidines described in the prior art is good but an improved stability towards photolysis may be an advantage as it could offer a longer lasting efficacy when applied to plants by foliar application. The improved stability towards photolysis was proven by a […] as described below: To produce a suitable preparation of active compound for the photolysis stability test, a 1000 ppm stock solution (1 mg/mL) of active compound in acetonitrile is prepared. Aliquots of 25 μL of this stock solution are pipetted in three wells of a Bio-one microtiter plate (MTP) UVStar 96 (Fa. Greiner, Art. No. 655801). The MTP is dried overnight in the dark and then irradiated at 30° C. and 480 W/m^2 with a UV irradiation device SUNTEST XLS+ or SUNTEST CPS (Fa. Atlas). The amount A of the active compound is analyzed by HPLC (UV-peak areas at 210 nm) at five points in time t: 0 h, 2 h, 4 h, 6 h, 24 h by using the following method: 200 μL acetonitrile is added in the respective well of the MTP and the MTP is sealed with a Bio-one sealing foil, viewseal 80/140 mm (Fa. Greiner, Art. No. 676070). The MTPs are sonicated for 3 minutes and analysed by HPLC. The half-life time (T) of each active compound is calculated via linear regression by using the following equations (first order degradation assumed): […]
In table IV the results of the photolysis stability test are shown for the compounds (I-01), (I-02), (I-03) and (I-04). […] This increased chemical stability towards photolysis will be of advantage as it will offer a longer lasting efficacy when applied to plants by foliar application compared to known amidines. The data are to be seen merely by way of example and are not limiting for the purposes of the invention.

[4] = acidic range, 0.1% formic acid in water and acetonitrile as eluent, read-out: LogP [a]
[5] = pH 7, read-out: T1/2 (pH 7) (converted)
[6] = pH 9, read-out: T1/2 (pH 9) (converted)
[7] = neutral range, 0.001 molar ammonium acetate solution in water and acetonitrile as eluent, read-out: LogP [b]

| chromatographic logP [1, 4] | half-life at 58.8 µg/mL [2, 5] | half-life at 58.8 µg/mL [2, 6] | half-life at 25 µg/well [3] | chromatographic logP [1, 7] | Structure (SMILES) | Necrosis in % (soy bean plants) | efficacy (Phakopsora pachyrhizi) |
| --- | --- | --- | --- | --- | --- | --- | --- |
| – | – | – | – | – | CCN(C)/C=N/c1cc(C)c(Oc2ccccc2F)cc1C [Compound no.337] | 90% | – |
| – | – | – | – | – | CCN(C)/C=N/c1cc(C)c(Oc2ccccc2)cc1C [Compound no. 1] | 90% | – |
| 1.66 | 52 h | 47 h | > 200 h | – | CCN(C)/C=N/c1cc(C)c(Oc2ccccc2F)cc1Cl [Example I-01, N′-[2-chloro-4-(2-fluorophenoxy)-5-methylphenyl]-N-ethyl-N-methylimidoformamide] | 20% | at least 70% |
| 1.76 | 160 h | 140 h | 185 h | – | CCN(C)C=Nc1cc(C)c(Oc2ccccc2F)cc1C(F)F [Example I-02, N′-[2-(difluoromethyl)-4-(2-fluorophenoxy)-5-methylphenyl]-N-ethyl-N-methylimidoformamide] | – | – |
| 1.66 | 68 h | 51 h | 178 h | 4.53 | CCN(C)C=Nc1cc(C)c(Oc2ccccc2F)cc1Br [Example I-03, N′-[2-bromo-4-(2-fluorophenoxy)-5-methylphenyl]-N-ethyl-N-methylimidoformamide] | – | – |
| 1.84 | 64 h | 58 h | > 200 h | 4.97 | CCN(C)C=Nc1cc(C)c(Oc2ccccc2Cl)cc1Br [Example I-04, N′-[2-bromo-4-(2-chlorophenoxy)-5-methylphenyl]-N-ethyl-N-methylimidoformamide] | – | – |
| 1.58 | 51 h | 47 h | – | – | CCN(C)C=Nc1cc(C)c(Oc2ccccc2Cl)cc1Cl [Example I-05, N′-[2-chloro-4-(2-chlorophenoxy)-5-methylphenyl]-N-ethyl-N-methylimidoformamide] | – | – |
| 1.78 | – | – | – | – | CCN(C)C=Nc1cc(C)c(Oc2ccccc2I)cc1Cl [Example I-06, N′-[2-chloro-4-(2-iodophenoxy)-5-methylphenyl]-N-ethyl-N-methylimidoformamide] | – | – |
| 1.81 | 63 h | 57 h | – | – | CCN(C)C=Nc1cc(C)c(Oc2ccccc2Br)cc1Br [Example I-07, N′-[2-bromo-4-(2-bromophenoxy)-5-methylphenyl]-N-ethyl-N-methylimidoformamide] | – | – |
| – | – | – | – | 3.53 | Cc1cc(N)c(Br)cc1Oc1ccccc1Cl [VIII-04, 2-Bromo-4-(2-chlorophenoxy)-5-methylaniline] | – | – |

| Structure (SMILES) | chromatographic logP [1, 4] | half-life at 58.8 µg/mL [2, 5] | half-life at 58.8 µg/mL [2, 6] | half-life at 25 µg/well [3] | chromatographic logP [1, 7] | Necrosis in % (soy bean plants) | efficacy (Phakopsora pachyrhizi) |
| --- | --- | --- | --- | --- | --- | --- | --- |
| Cc1cc([N+](=O)[O-])c(C(F)F)cc1Oc1ccccc1F [VI-02, 1-(Difluoromethyl)-5-(2-fluorophenoxy)-4-methyl-2-nitrobenzene] | 3.97 | – | – | – | – | – | – |
| Cc1cc([N+](=O)[O-])c(Br)cc1Oc1ccccc1Cl [VI-04, 4-Bromo-2-(2-chlorophenoxy)-1-methyl-5-nitrobenzene] | 4.68 | – | – | – | – | – | – |
